Data as given in the NIST ThermoML archive (doi:10.1021/je301301j).
Numbers after ± are expanded uncertainties.

What was measured:
[1] = Liquid; for viscosity: Concentric cylinders viscometry; for mass density: Vibrating tube method
[2] = xn = mol fraction of the nth substance listed; settings: 100 kPa, Liquid, Concentric cylinders viscometry, x1 = 1
[3] = molar heat capacity at constant pressure; settings: Liquid, Flow calorimetry

CCCCO [butan-1-ol]
[1], 100 kPa
Settings	viscosity [mPa·s]
293.15 K	2.953 ± 0.062
303.15 K	2.263 ± 0.048
313.15 K	1.769 ± 0.038

CCCCO [butan-1-ol] + C=CCCCC
[2]
Settings	viscosity [mPa·s]
293.15 K	2.953 ± 0.062
303.15 K	2.263 ± 0.048
313.15 K	1.769 ± 0.038

C=CCCCC [hex-1-ene]
Settings	mass density [kg/m3]	molar heat capacity at constant pressure [J/K/mol]	viscosity [mPa·s]
[1], 273.15 K, 100 kPa	691.5 ± 0.7	–	–
[1], 273.15 K, 1000 kPa	692.1 ± 0.7	–	–
[1], 273.15 K, 2000 kPa	693 ± 0.7	–	–
[1], 273.15 K, 5000 kPa	695.8 ± 0.7	–	–
[1], 273.15 K, 10000 kPa	700 ± 0.8	–	–
[1], 273.15 K, 15000 kPa	704 ± 0.8	–	–
[1], 273.15 K, 20000 kPa	707.8 ± 0.8	–	–
[1], 273.15 K, 30000 kPa	715 ± 0.8	–	–
[1], 273.15 K, 40000 kPa	721.6 ± 0.9	–	–
[1], 273.15 K, 50000 kPa	727.6 ± 0.9	–	–
[1], 273.15 K, 60000 kPa	733.2 ± 1	–	–
[1], 273.15 K, 70000 kPa	738.7 ± 1	–	–
[1], 293.15 K, 100 kPa	672.8 ± 0.7	–	0.28 ± 0.007
[1], 293.15 K, 1000 kPa	673.8 ± 0.7	–	–
[1], 293.15 K, 2000 kPa	674.9 ± 0.7	–	–
[1], 293.15 K, 5000 kPa	678 ± 0.7	–	–
[1], 293.15 K, 10000 kPa	682.9 ± 0.8	–	–
[1], 293.15 K, 15000 kPa	687.5 ± 0.8	–	–
[1], 293.15 K, 20000 kPa	691.8 ± 0.8	–	–
[1], 293.15 K, 30000 kPa	699.8 ± 0.8	–	–
[1], 293.15 K, 40000 kPa	707 ± 0.9	–	–
[1], 293.15 K, 50000 kPa	713.7 ± 1	–	–
[1], 293.15 K, 60000 kPa	719.9 ± 1	–	–
[1], 293.15 K, 70000 kPa	725.8 ± 1.1	–	–
[1], 303.15 K, 100 kPa	–	–	0.257 ± 0.007
[1], 313.15 K, 100 kPa	653.8 ± 0.7	–	0.236 ± 0.006
[1], 313.15 K, 1000 kPa	654.9 ± 0.7	–	–
[1], 313.15 K, 2000 kPa	656.2 ± 0.7	–	–
[1], 313.15 K, 5000 kPa	659.9 ± 0.7	–	–
[1], 313.15 K, 10000 kPa	665.5 ± 0.8	–	–
[1], 313.15 K, 15000 kPa	670.8 ± 0.8	–	–
[1], 313.15 K, 20000 kPa	675.7 ± 0.8	–	–
[1], 313.15 K, 30000 kPa	684.6 ± 0.9	–	–
[1], 313.15 K, 40000 kPa	692.6 ± 0.9	–	–
[1], 313.15 K, 50000 kPa	699.9 ± 1	–	–
[1], 313.15 K, 60000 kPa	706.9 ± 1	–	–
[1], 313.15 K, 70000 kPa	713 ± 1.1	–	–
[1], 333.15 K, 100 kPa	634 ± 0.7	–	–
[1], 333.15 K, 1000 kPa	635.4 ± 0.7	–	–
[1], 333.15 K, 2000 kPa	636.9 ± 0.7	–	–
[1], 333.15 K, 5000 kPa	641.3 ± 0.7	–	–
[1], 333.15 K, 10000 kPa	647.8 ± 0.8	–	–
[1], 333.15 K, 15000 kPa	653.9 ± 0.8	–	–
[1], 333.15 K, 20000 kPa	659.5 ± 0.8	–	–
[1], 333.15 K, 30000 kPa	669.5 ± 0.9	–	–
[1], 333.15 K, 40000 kPa	678.4 ± 0.9	–	–
[1], 333.15 K, 50000 kPa	686.3 ± 1	–	–
[1], 333.15 K, 60000 kPa	693.7 ± 1.1	–	–
[1], 333.15 K, 70000 kPa	700.5 ± 1.1	–	–
[3], 293.15 K, 100 kPa	–	179.2 ± 1.1	–
[3], 293.15 K, 5000 kPa	–	174.9 ± 1.1	–
[3], 293.15 K, 10000 kPa	–	172.7 ± 1.1	–
[3], 293.15 K, 15000 kPa	–	169.9 ± 1.1	–
[3], 293.15 K, 20000 kPa	–	168.1 ± 1	–
[3], 293.15 K, 25000 kPa	–	165.7 ± 1	–
[3], 313.15 K, 100 kPa	–	188.8 ± 1.2	–
[3], 313.15 K, 5000 kPa	–	185.9 ± 1.1	–
[3], 313.15 K, 10000 kPa	–	183.1 ± 1.1	–
[3], 313.15 K, 15000 kPa	–	181.6 ± 1.1	–
[3], 313.15 K, 20000 kPa	–	179.6 ± 1.1	–
[3], 313.15 K, 25000 kPa	–	177.2 ± 1.1	–
